The target of assay [1] is T1, E. coli katG (HPI catalase) (Escherichia coli, UniProt P13029).
T1 construct: native enzyme in extract of E. coli (Top10 with pBAD vector), resolved on native gel; tetramer; band absent in katG mutant
The assay is described as follows: in-gel tellurite reductase activity after native PAGE of E. coli extract; absent in katG mutant. Format: biochemical. The note with it: 1 mM K2TeO3, 1 mM NADH, 1 mM 2-mercaptoethanol, potassium phosphate pH 7, 37 °C, 12 h.

Assay [2] deals with T2, S. epidermidis CH katA (catalase) (Staphylococcus epidermidis, UniProt Q2PUJ9).
T2 construct: katA coding region (1,515 bp) in pBAD (plasmid pCAT), expressed in E. coli Top10, extract; about 60 kDa subunit; homolog of SE1016 of ATCC12228
T2 sequence (Q2PUJ9 3-504): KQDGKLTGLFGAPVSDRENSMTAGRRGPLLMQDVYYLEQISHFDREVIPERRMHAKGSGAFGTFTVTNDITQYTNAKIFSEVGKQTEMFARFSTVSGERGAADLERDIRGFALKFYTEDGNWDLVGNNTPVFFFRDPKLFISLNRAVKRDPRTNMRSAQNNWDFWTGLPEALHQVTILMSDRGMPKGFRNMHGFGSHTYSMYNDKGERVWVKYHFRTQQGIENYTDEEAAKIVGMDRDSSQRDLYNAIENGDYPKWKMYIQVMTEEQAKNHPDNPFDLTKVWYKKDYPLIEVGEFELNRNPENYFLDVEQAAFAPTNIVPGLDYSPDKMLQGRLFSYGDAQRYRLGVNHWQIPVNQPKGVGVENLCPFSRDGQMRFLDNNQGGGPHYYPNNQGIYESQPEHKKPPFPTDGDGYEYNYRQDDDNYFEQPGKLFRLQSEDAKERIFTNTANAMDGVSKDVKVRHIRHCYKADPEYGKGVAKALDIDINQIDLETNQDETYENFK
The assay is described as follows: in-gel tellurite reductase activity after native PAGE of recombinant E. coli extract. Format: biochemical. The settings on record: 1 mM K2TeO3, 1 mM NADH, 1 mM 2-mercaptoethanol, potassium phosphate pH 7, 37 °C, 12 h.

Each structure is given as a SMILES string.

T1 sequence (P13029 whole entry): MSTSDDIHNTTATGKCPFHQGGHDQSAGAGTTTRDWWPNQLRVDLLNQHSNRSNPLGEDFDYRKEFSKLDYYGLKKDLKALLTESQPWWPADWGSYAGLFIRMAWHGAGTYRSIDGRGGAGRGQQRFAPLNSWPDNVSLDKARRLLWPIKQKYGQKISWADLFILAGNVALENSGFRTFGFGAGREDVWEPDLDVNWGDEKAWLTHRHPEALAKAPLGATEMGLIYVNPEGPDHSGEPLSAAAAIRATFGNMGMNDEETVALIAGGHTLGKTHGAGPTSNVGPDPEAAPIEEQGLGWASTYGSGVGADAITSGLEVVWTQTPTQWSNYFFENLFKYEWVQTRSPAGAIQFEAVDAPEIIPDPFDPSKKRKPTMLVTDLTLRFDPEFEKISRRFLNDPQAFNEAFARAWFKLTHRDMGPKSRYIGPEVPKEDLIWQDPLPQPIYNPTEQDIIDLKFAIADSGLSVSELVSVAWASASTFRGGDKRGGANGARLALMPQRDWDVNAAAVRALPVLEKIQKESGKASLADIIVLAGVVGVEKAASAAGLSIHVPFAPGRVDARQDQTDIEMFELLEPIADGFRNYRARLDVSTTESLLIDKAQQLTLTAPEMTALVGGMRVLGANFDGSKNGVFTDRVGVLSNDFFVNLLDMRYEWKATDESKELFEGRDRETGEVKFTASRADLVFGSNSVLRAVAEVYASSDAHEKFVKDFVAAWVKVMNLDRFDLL

With `O=[Te](O)O` [tellurite], the “in-gel tellurite reductase activity after native PAGE of E. coli extract; absent” value in assay [1] is reported as “a barely detectable tellurite reductase activity”. Also, the “in-gel tellurite reductase activity after native PAGE of recombinant E. coli ext” value in assay [2] is reported as “tellurite reductase activities of catalase are expressed at more than-four fold higher levels”.

The values are drawn from publication PMC1762332, “Catalases Are NAD(P)H-Dependent Tellurite Reductases” (PLoS ONE, 2006).
